Measured values published in ChEMBL document CHEMBL4507293 (2021).

Columns and labels:
[1] = molecular target: Mitogen-activated protein kinase kinase kinase 2 (Homo sapiens) (UniProt Q9Y2U5); settings: Compound concentration 100.0 nM
Homo sapiens = species on record: Homo sapiens; test: Glutamate, Metabotropic, mGlu5 Eurofins-Panlabs radioligand binding assay; settings: Compound concentration 10.0 uM
[2] = molecular target: Beta-2 adrenergic receptor (Homo sapiens) (UniProt P07550); settings: Compound concentration 10.0 uM
[3] = molecular target: Thyrotropin-releasing hormone receptor (Homo sapiens) (UniProt P34981); test: Thyrotropin Releasing Hormone (TRH) Eurofins-Panlabs radioligand binding assay; set-up: ligand concentration 3 nM; settings: Rattus norvegicus; Compound concentration 10.0 uM
[4] = molecular target: 5-hydroxytryptamine receptor 6 (Homo sapiens) (UniProt P50406); test: Inhibition of Serotonin (5-Hydroxytryptamine) 5-HT6 at 10 µM in the Eurofins-Panlabs radioligand binding assay (Eurofins_assay_272200); settings: Compound concentration 10.0 uM
[5] = molecular target: T1, Glutamate NMDA receptor (Rattus norvegicus) (UniProt P35439+Q00959+Q00960+Q00961+Q62645+Q8VHN2+Q9R1M7); settings: Compound concentration 10.0 uM
[6] = molecular target: Platelet-activating factor receptor (Homo sapiens) (UniProt P25105); test: Inhibition of Platelet Activating Factor (PAF) at 10 µM in the Eurofins-Panlabs radioligand binding assay (Eurofins_assay_265010); settings: Compound concentration 10.0 uM
[7] = molecular target: Glutamate NMDA receptor; GRIN1/GRIN2A (Homo sapiens) (UniProt Q05586+Q12879); test: NMDA-NR1a/NR2a Eurofins-Panlabs radioligand binding assay; type: protein-complex assay; settings: Compound concentration 10.0 uM
[8] = molecular target: C-X-C chemokine receptor type 4 (Homo sapiens) (UniProt P61073); test: Chemokine CXCR4 Eurofins-Panlabs radioligand binding assay; set-up: ligand concentration 0.03 nM; settings: Compound concentration 10.0 uM
[9] = molecular target: Mitogen-activated protein kinase 3 (Homo sapiens) (UniProt P27361); test: Inhibition of Protein Serine/Threonine Kinase, MAPK3 (ERK1) at 10 µM in the Eurofins-Panlabs enzyme assay (Eurofins_assay_171000); settings: Compound concentration 10.0 uM
[10] = molecular target: MAP/microtubule affinity-regulating kinase 3 (Homo sapiens) (UniProt P27448); test: Protein Serine/Threonine Kinase, MARK3 Eurofins-Panlabs enzyme assay; settings: Compound concentration 10.0 uM
[11] = molecular target: GABA-A receptor; anion channel (Rattus norvegicus) (UniProt O09028+P15431+P18506+P18508+P19969+P20236+P23574+P23576+P28471+P28473+P30191+P62813+P63079+P63138+Q91ZM7+Q9ES14); settings: Compound concentration 10.0 uM
[12] = molecular target: T2, 5-hydroxytryptamine receptor 2C (Homo sapiens) (UniProt P28335); settings: Compound concentration 10.0 uM
T2 sequence (whole entry): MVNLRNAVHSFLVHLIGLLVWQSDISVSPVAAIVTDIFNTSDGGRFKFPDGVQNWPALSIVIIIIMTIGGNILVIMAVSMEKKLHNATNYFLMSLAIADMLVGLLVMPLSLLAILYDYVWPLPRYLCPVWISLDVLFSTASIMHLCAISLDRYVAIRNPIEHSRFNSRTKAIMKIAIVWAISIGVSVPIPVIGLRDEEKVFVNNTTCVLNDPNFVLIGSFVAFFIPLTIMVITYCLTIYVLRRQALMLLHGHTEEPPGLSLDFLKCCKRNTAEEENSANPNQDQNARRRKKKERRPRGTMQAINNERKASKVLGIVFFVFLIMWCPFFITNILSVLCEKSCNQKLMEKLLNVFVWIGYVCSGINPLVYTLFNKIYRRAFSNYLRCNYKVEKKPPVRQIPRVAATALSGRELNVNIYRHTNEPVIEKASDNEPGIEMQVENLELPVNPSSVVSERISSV

Caspase-3 (Homo sapiens) = Caspase-3 (Homo sapiens) (UniProt P42574); test: Peptidase, CASP3 (Caspase 3) Eurofins-Panlabs enzyme assay; settings: Compound concentration 10.0 uM
[13] = molecular target: Nociceptin receptor (Homo sapiens) (UniProt P41146); test: Orphanin ORL1 Eurofins-Panlabs radioligand binding assay; settings: Compound concentration 10.0 uM
[14] = molecular target: Somatostatin receptor type 2 (Homo sapiens) (UniProt P30874); test: Somatostatin sst2 Eurofins-Panlabs radioligand binding assay; set-up: ligand concentration 0.03 nM; settings: Compound concentration 10.0 uM
[15] = molecular target: Peroxisome proliferator-activated receptor gamma (Homo sapiens) (UniProt P37231); test: PPARgamma Eurofins-Panlabs radioligand binding assay; set-up: ligand concentration 5 nM, non-specific ligand with concentration 0.5 µM L-797773, incubation time 18 h, incubation temperature 15 °C; settings: Compound concentration 10.0 uM
Rattus norvegicus = species on record: Rattus norvegicus; test: Inhibition of Glycine, Strychnine-Sensitive at 10 µM in the Eurofins-Panlabs radioligand binding assay (Eurofins_assay_239000); settings: Compound concentration 10.0 uM
[16] = molecular target: Kappa-type opioid receptor (Homo sapiens) (UniProt P41145); settings: Compound concentration 10.0 uM
[17] = molecular target: Melanocortin receptor 5 (Homo sapiens) (UniProt P33032); test: Inhibition of Melanocortin MC5 at 10 µM in the Eurofins-Panlabs radioligand binding assay (Eurofins_assay_251400); set-up: ligand concentration 0.035 nM; settings: Compound concentration 10.0 uM
[18] = molecular target: Adenosine receptor A2a (Homo sapiens) (UniProt P29274); settings: Compound concentration 10.0 uM
[19] = molecular target: T1, Glutamate NMDA receptor (Rattus norvegicus); settings: Compound concentration 10.0 uM; remark: listed apart in the source
[20] = molecular target: Insulin receptor (Homo sapiens) (UniProt P06213); test: Protein Tyrosine Kinase, Insulin Receptor Eurofins-Panlabs enzyme assay; set-up: substrate with concentration 10 µg/mL Histone H1, incubation time 60 min, incubation temperature 25 °C; settings: Compound concentration 10.0 uM
[21] = molecular target: Melanocortin receptor 3 (Homo sapiens) (UniProt P41968); test: Inhibition of Melanocortin MC3 at 10 µM in the Eurofins-Panlabs radioligand binding assay (Eurofins_assay_251300); set-up: ligand concentration 0.035 nM; settings: Compound concentration 10.0 uM
[22] = molecular target: Adenosine receptor A1 (Homo sapiens) (UniProt P30542); settings: Compound concentration 10.0 uM
[23] = molecular target: Prostaglandin E2 receptor EP1 subtype (Homo sapiens) (UniProt P34995); test: Prostanoid EP1 Eurofins-Panlabs radioligand binding assay; settings: Compound concentration 10.0 uM
[24] = molecular target: T3, Muscarinic acetylcholine receptor M5 (Homo sapiens) (UniProt P08912); test: Inhibition of Muscarinic M5 at 10 µM in the Eurofins-Panlabs radioligand binding assay (Eurofins_assay_253010); set-up: ligand concentration 0.8 nM; settings: Compound concentration 10.0 uM
T3 sequence (whole entry): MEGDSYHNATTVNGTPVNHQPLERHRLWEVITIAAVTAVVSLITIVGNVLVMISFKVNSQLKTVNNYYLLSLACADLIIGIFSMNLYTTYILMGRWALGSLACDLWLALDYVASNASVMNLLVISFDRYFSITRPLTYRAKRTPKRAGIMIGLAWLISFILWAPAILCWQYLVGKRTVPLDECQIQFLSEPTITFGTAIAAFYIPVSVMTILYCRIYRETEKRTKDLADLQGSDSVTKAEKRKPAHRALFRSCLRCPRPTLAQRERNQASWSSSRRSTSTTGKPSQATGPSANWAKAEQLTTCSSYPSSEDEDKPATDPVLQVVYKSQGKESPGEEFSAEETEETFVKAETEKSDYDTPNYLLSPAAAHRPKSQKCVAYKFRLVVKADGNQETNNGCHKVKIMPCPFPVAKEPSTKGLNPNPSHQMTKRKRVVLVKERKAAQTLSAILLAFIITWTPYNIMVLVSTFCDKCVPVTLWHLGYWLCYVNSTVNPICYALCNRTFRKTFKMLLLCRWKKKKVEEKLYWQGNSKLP

Beta-2 adrenergic receptor (Homo sapiens), sequence (P07550 whole entry, looked up): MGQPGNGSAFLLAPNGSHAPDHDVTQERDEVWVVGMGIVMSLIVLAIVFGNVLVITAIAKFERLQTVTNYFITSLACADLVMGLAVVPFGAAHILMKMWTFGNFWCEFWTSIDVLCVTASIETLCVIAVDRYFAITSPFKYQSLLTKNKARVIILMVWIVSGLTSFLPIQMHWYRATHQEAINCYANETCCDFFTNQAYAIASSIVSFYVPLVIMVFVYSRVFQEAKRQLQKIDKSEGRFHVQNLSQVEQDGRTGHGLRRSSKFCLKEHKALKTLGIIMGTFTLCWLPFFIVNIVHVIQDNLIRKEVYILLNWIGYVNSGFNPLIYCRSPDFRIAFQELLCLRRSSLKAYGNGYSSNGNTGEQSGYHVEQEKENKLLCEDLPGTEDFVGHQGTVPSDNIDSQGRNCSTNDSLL
C-X-C chemokine receptor type 4 (Homo sapiens), sequence (P61073 whole entry): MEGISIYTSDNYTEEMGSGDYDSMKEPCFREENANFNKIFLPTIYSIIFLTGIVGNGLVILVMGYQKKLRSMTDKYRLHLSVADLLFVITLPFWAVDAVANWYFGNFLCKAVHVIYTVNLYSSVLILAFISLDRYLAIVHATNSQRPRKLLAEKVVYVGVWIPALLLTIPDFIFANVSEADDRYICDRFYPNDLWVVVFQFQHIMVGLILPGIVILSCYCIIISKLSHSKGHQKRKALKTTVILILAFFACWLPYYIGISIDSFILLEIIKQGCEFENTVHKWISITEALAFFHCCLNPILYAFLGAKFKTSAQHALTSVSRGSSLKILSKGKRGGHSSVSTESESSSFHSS
Peroxisome proliferator-activated receptor gamma (Homo sapiens), sequence (P37231 whole entry): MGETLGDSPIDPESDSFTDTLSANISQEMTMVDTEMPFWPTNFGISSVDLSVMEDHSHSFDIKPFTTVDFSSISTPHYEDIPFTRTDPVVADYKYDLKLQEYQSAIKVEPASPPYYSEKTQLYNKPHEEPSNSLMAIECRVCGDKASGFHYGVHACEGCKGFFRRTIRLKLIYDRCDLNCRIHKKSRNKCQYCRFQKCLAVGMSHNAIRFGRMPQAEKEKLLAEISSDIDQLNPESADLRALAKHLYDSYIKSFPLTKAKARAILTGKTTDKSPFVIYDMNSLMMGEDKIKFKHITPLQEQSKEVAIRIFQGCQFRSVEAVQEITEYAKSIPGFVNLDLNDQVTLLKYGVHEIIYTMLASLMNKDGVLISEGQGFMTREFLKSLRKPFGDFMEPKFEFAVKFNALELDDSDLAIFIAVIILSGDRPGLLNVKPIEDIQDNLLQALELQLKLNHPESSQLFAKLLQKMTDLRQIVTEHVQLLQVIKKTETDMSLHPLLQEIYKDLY
Thyrotropin-releasing hormone receptor (Homo sapiens), sequence (P34981 whole entry): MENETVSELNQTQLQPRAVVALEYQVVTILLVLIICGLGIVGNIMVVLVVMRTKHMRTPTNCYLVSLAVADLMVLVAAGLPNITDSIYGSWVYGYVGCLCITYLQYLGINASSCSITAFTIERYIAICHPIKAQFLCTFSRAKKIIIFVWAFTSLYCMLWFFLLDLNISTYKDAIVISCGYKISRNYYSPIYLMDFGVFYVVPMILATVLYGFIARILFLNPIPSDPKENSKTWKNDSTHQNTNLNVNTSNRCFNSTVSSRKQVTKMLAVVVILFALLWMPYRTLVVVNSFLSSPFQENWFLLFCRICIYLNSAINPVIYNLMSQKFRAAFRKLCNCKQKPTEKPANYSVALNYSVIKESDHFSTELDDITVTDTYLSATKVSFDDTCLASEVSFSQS
Insulin receptor (Homo sapiens), sequence (P06213 28-758 limits assumed): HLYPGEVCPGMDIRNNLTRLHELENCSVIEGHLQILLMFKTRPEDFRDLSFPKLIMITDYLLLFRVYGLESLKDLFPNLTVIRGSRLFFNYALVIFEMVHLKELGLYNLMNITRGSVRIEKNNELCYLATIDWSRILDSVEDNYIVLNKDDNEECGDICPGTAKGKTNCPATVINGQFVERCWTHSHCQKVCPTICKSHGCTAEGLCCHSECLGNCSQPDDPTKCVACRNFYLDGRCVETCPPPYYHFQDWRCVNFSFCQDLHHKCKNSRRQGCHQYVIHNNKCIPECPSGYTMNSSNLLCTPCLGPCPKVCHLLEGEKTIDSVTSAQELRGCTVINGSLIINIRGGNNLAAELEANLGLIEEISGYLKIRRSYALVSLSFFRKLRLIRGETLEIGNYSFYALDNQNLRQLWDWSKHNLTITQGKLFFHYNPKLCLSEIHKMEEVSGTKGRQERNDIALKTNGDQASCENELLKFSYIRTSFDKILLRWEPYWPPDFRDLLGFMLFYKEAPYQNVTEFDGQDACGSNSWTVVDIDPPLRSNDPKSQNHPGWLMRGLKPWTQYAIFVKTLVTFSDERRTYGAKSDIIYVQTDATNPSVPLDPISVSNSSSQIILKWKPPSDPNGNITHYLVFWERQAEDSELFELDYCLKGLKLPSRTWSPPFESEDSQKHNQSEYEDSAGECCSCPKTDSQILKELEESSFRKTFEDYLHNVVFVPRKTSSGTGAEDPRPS
Insulin receptor (Homo sapiens), sequence (P06213 763-1382 limits assumed): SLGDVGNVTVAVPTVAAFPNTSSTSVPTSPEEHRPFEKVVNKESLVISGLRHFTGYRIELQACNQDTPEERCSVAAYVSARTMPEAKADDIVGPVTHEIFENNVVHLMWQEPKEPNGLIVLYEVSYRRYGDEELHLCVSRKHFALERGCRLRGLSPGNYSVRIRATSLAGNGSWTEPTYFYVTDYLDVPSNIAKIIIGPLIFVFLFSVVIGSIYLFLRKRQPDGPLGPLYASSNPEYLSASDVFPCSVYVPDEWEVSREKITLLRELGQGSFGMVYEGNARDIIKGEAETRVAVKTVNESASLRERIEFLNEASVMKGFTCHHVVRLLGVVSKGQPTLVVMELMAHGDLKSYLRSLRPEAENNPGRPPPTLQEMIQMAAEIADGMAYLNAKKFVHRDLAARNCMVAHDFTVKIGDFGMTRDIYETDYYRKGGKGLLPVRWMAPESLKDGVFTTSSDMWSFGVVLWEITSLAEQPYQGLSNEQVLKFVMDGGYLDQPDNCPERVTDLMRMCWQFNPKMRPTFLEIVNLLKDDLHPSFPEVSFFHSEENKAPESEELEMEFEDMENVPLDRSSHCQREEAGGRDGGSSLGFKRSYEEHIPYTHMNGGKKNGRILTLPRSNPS
Mitogen-activated protein kinase kinase kinase 2 (Homo sapiens), sequence (Q9Y2U5 whole entry): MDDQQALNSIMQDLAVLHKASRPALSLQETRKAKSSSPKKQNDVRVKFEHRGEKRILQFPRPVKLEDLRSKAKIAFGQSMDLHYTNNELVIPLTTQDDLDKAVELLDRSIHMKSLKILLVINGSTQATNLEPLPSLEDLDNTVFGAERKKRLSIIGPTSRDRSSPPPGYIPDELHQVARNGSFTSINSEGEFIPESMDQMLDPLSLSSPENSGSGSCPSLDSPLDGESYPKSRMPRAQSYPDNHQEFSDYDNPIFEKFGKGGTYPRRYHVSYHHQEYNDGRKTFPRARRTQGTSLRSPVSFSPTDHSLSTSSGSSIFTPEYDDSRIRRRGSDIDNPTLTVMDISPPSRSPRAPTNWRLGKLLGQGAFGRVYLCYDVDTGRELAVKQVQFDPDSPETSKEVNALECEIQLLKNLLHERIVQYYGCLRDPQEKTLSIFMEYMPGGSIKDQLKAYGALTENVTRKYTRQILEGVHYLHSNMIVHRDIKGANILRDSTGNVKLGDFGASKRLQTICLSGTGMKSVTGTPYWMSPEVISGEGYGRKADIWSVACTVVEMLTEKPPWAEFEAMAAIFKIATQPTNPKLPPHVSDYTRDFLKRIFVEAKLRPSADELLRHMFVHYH
Prostaglandin E2 receptor EP1 subtype (Homo sapiens), sequence (P34995 whole entry): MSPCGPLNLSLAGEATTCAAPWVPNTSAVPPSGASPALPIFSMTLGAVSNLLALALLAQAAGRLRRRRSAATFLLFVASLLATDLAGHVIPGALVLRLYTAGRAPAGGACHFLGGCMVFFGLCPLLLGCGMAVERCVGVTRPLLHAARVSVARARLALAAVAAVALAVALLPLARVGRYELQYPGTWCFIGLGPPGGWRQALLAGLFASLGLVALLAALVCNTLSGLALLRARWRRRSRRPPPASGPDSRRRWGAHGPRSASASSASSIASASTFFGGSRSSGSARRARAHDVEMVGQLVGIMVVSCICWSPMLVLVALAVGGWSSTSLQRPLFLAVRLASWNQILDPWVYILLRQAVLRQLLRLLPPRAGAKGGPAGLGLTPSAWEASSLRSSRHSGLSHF
5-hydroxytryptamine receptor 6 (Homo sapiens), sequence (P50406 whole entry): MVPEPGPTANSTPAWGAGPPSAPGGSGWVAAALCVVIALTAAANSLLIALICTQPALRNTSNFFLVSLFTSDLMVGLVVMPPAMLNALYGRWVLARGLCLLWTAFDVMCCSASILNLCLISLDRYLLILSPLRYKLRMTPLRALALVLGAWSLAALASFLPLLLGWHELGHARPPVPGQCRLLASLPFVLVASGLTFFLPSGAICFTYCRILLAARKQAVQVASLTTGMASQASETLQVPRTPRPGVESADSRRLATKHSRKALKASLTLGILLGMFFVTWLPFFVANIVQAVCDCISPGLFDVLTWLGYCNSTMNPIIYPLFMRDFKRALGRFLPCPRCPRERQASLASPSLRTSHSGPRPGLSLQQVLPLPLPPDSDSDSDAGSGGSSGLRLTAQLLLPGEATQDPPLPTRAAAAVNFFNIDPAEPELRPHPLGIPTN
Somatostatin receptor type 2 (Homo sapiens), sequence (P30874 whole entry): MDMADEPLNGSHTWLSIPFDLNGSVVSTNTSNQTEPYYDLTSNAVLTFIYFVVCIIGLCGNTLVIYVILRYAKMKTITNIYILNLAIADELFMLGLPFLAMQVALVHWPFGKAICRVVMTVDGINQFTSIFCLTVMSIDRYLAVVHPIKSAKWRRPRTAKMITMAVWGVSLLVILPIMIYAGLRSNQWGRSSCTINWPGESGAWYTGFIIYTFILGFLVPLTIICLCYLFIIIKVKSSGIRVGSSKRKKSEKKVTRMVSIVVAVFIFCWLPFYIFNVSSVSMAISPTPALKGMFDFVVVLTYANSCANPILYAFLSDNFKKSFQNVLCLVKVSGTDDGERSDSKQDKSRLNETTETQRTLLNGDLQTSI

CC(C)CC(=O)N1CCc2nc(-c3ccc(Br)cc3)nc(N(C)Cc3ccccc3)c2C1 [THPP-1-NC]
inactive: residual activity [1] 100%

COCCOc1nc(-c2ccc(Cl)nc2)nc2c1CN(C(=O)c1ncn3ccccc13)CC2 [THPP-1]
inactive: inhibition (Homo sapiens) 22% | inhibition [2] -4% | inhibition [3] 7% | inhibition [4] 5% | inhibition [5] 3% | inhibition [6] -4% | inhibition [7] -7% | inhibition [8] 4% | inhibition [9] 6% | inhibition [10] 7% | inhibition [11] 4% | inhibition [12] 22% | inhibition (Caspase-3 (Homo sapiens)) -1% | inhibition [13] 5% | inhibition [14] 0% | inhibition [15] -4% | inhibition (Rattus norvegicus) 15% | inhibition [16] 2% | inhibition [17] 6% | inhibition [18] 17% | inhibition [19] 0% | inhibition [20] -2% | inhibition [21] 0% | inhibition [22] 37% | inhibition [23] -1% | inhibition [24] 1%
